Assay results published in patent US9850207B2, “Substituted piperidines as soluble epdxide hydrolase inhibitors” (The Regents of the University of California, priority 2012, dated 2017).

Test system: streptozocin (STZ)-induced type I diabetes model of neuropathic pain
Test: streptozocin (STZ)-induced type I diabetes model of neuropathic pain (von Frey mechanical withdrawal threshold)
Assay type: in vivo
Details: rats, 10 mpk, as compared to 10 mpk of celecoxib; average of 6 rats (FIG. 3)
Experimental: Diabetic neuropathic pain was modeled using streptozocin which targets and kills the pancreatic beta islet cells rendering the animals with type I diabetes. The rats were acclimated for one hour and tested for baseline thresholds before inducing diabetes. The baseline mechanical withdrawal thresholds were established using the von Frey mechanical nociceptive test with an electronic anesthesiometer (IITC, Woodland Hills, Calif.). Subsequently, streptozocin (55 mg/kg) in saline was injected via tail vein per previously reported methods (Aley, K. O. and Levine J. D. J. Pain 2001, 2, 146.). After five days the allodynia of diabetic rats was confirmed with the von Frey nociceptive assay. Rats were placed in clear acrylic chambers on a steel mesh floor. The hind paw of the rat was probed through the mesh with a rigid tip probe connected to the electronic readout pressure meter set to the maximum hold setting. The withdrawal thresholds per rat were measured 3-5 times at 1 minute intervals for each time point.
The baseline diabetic allodynia was quantified again at the beginning of all test days. The rats were then administered vehicle or sEH inhibitor via oral gavage and tested at 30 min. 1, 2, 3, 4, 5, and 6 h for mechanical withdrawal thresholds. […]

## CC(=O)N1CCC(NC(=O)NC23CC4CC(CC(C4)C2)C3)CC1 [UC1153]
  pain response (% of baseline; below 60% of baseline is painful state, 100% is lack of enhanced pain detection): significantly alleviate the pain response
